PubChem BioAssay AID256 (DTP/NCI, 2004)
Several values for one entry are separate records, joined by “and”; a condition that tells them apart may be missing. Equal entries are not always repeated. Toxic doses and inconclusive results are not listed. The calls were made as follows: active = survival T/C of 150% or more; inactive = T/C below 125% in these data.

System: CD2F1 mice, L1210 leukemia ip, survival T/C
Experiment: NCI In Vivo Anticancer Drug Screen. Data for tumor model L1210 Leukemia (intraperitoneal) in CD2F1 (CDF1) mice
Conditions: higher = longer survival
How it was run: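 Each value reflects a quotient of treated over vehicle control outcomes in mice with a transplanted tumor.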

[1] = endpoint: mean survival time, dose: 100.0 mg/kg/injection, schedule: Q01DX009 (ip), vehicle: saline with Tween-80
[2] = endpoint: mean survival time, dose: 100.0 mg/kg/injection, schedule: Q04DX003 (ip), vehicle: saline with Tween-80
[3] = endpoint: mean survival time, dose: 200.0 mg/kg/injection, schedule: Q01DX009 (ip), vehicle: saline with Tween-80
[4] = endpoint: mean survival time, dose: 200.0 mg/kg/injection, schedule: Q04DX003 (ip), vehicle: saline with Tween-80
[5] = endpoint: mean survival time, dose: 400.0 mg/kg/injection, schedule: Q01DX009 (ip), vehicle: saline with Tween-80
[6] = endpoint: mean survival time, dose: 400.0 mg/kg/injection, schedule: Q04DX003 (ip), vehicle: saline with Tween-80
[7] = endpoint: mean survival time, dose: 100.0 mg/kg/injection, schedule: Q04DX002 (ip), vehicle: saline with Tween-80
[8] = endpoint: mean survival time, dose: 100.0 mg/kg/injection, schedule: Q01DX001 (ip), vehicle: saline with Tween-80
[9] = endpoint: mean survival time, dose: 200.0 mg/kg/injection, schedule: Q01DX001 (ip), vehicle: saline with Tween-80
[10] = endpoint: mean survival time, dose: 400.0 mg/kg/injection, schedule: Q01DX001 (ip), vehicle: saline with Tween-80

Measured: T/C

O=[N+]([O-])c1c(Cl)c(Cl)cc(Cl)c1Cl
inactive: [1] 94 % of control | [2] 93 % of control | [3] 96 % of control | [4] 97 % of control | [5] 98 % of control | [6] 98 % of control

CC(C)C[P+](c1ccccc1)(c1ccccc1)c1ccccc1
inactive: endpoint: mean survival time, dose: 75.0 mg/kg/injection, schedule: Q01DX001 (ip), vehicle: other 96 % of control

Nc1nc2c(ncn2-c2ccc(NC(=O)c3cccc(S(=O)(=O)F)c3)cc2)c(=O)[nH]1
inactive: endpoint: mean survival time, dose: 37.5 mg/kg/injection, schedule: Q04DX002 (ip), vehicle: saline with Tween-80 90 % of control | endpoint: mean survival time, dose: 75.0 mg/kg/injection, schedule: Q04DX002 (ip), vehicle: saline with Tween-80 111 % of control | endpoint: mean survival time, dose: 150.0 mg/kg/injection, schedule: Q04DX002 (ip), vehicle: saline with Tween-80 94 % of control

COc1nc2c(N)ncnc2n1C1OC(CO)C(O)C1O (configuration not stated)
inactive: [7] 103 % of control | endpoint: mean survival time, dose: 200.0 mg/kg/injection, schedule: Q04DX002 (ip), vehicle: saline with Tween-80 103 % of control | endpoint: mean survival time, dose: 400.0 mg/kg/injection, schedule: Q04DX002 (ip), vehicle: saline with Tween-80 96 % of control

Cc1c2ccccc2cc2cc[n+]3ccccc3c12
inactive: endpoint: mean survival time, dose: 10.0 mg/kg/injection, schedule: Q01DX009 (ip), vehicle: Klucel (hydroxypropylcellulose) (HPC) 92 % of control | endpoint: mean survival time, dose: 20.0 mg/kg/injection, schedule: Q01DX009 (ip), vehicle: Klucel (hydroxypropylcellulose) (HPC) 103 % of control | endpoint: mean survival time, dose: 40.0 mg/kg/injection, schedule: Q01DX009 (ip), vehicle: Klucel (hydroxypropylcellulose) (HPC) 92 % of control

Nc1c(Cl)cc(Cl)c(-c2c(Cl)cc(Cl)c(N)c2Cl)c1Cl
inactive: endpoint: mean survival time, dose: 12.5 mg/kg/injection, schedule: Q01DX009 (ip), vehicle: other 100 % of control | endpoint: mean survival time, dose: 25.0 mg/kg/injection, schedule: Q01DX009 (ip), vehicle: other 101 % of control | endpoint: mean survival time, dose: 50.0 mg/kg/injection, schedule: Q01DX009 (ip), vehicle: other 101 % of control | endpoint: mean survival time, dose: 100.0 mg/kg/injection, schedule: Q01DX009 (ip), vehicle: other 97 % of control | endpoint: mean survival time, dose: 200.0 mg/kg/injection, schedule: Q01DX009 (ip), vehicle: other 94 % of control

OCC1OC(n2cc(I)c3c(Cl)ncnc32)C(O)C1O (configuration not stated)
inactive: endpoint: mean survival time, dose: 100.0 mg/kg/injection, schedule: Q01DX001 (ip), vehicle: saline 98 % of control | endpoint: mean survival time, dose: 200.0 mg/kg/injection, schedule: Q01DX001 (ip), vehicle: saline 110 % of control | endpoint: mean survival time, dose: 400.0 mg/kg/injection, schedule: Q01DX001 (ip), vehicle: saline 110 % of control

Cc1c(N)nc(C(CC(N)=O)NCC(N)C(N)=O)nc1C(=O)NC(C(=O)NC(C)C(O)C(C)C(=O)NC(C(=O)NCCc1nc(-c2nc(C(=O)NCCCNC(C)c3ccccc3)cs2)cs1)C(C)O)C(OC1OC(CO)C(O)C(O)C1OC1OC(CO)C(O)C(OC(N)=O)C1O)c1cnc[nH]1 (configuration not stated)
inactive: endpoint: mean survival time, dose: 0.25 mg/kg/injection, schedule: Q01DX009 (ip), vehicle: water 100 % of control | endpoint: mean survival time, dose: 0.5 mg/kg/injection, schedule: Q01DX009 (ip), vehicle: water 103 % of control and 105 % of control | endpoint: mean survival time, dose: 1.0 mg/kg/injection, schedule: Q01DX009 (ip), vehicle: saline 103 % of control | endpoint: mean survival time, dose: 1.0 mg/kg/injection, schedule: Q01DX009 (ip), vehicle: water 123 % of control and 98 % of control | endpoint: mean survival time, dose: 2.0 mg/kg/injection, schedule: Q01DX009 (ip), vehicle: saline 106 % of control | endpoint: mean survival time, dose: 2.0 mg/kg/injection, schedule: Q01DX009 (ip), vehicle: water 104 % of control and 109 % of control | endpoint: mean survival time, dose: 4.0 mg/kg/injection, schedule: Q01DX009 (ip), vehicle: saline 104 % of control | endpoint: mean survival time, dose: 4.0 mg/kg/injection, schedule: Q01DX009 (ip), vehicle: water 113 % of control and 102 % of control | endpoint: mean survival time, dose: 8.0 mg/kg/injection, schedule: Q01DX009 (ip), vehicle: saline 106 % of control | endpoint: mean survival time, dose: 8.0 mg/kg/injection, schedule: Q01DX009 (ip), vehicle: water 109 % of control | endpoint: mean survival time, dose: 16.0 mg/kg/injection, schedule: Q01DX009 (ip), vehicle: saline 101 % of control | endpoint: mean survival time, dose: 16.0 mg/kg/injection, schedule: Q01DX009 (ip), vehicle: water 113 % of control | endpoint: mean survival time, dose: 32.0 mg/kg/injection, schedule: Q01DX009 (ip), vehicle: saline 89 % of control

Oc1ccc2ccccc2c1Cl
inactive: [2] 104 % of control | [4] 112 % of control | [6] 108 % of control

CC(C)(c1cc(Cl)c(OCCO)c(Cl)c1)c1cc(Cl)c(OCCO)c(Cl)c1
inactive: [2] 105 % of control | [4] 102 % of control | [6] 109 % of control

O=C(COc1cccc(Cl)c1)NCc1cccc(NC(=O)Nc2cccc(S(=O)(=O)F)c2)c1
inactive: [8] 91 % of control | [9] 98 % of control | [10] 101 % of control

O=C1/C(=C\c2ccc(Cl)cc2)SC(=S)N1/N=C/c1ccc(Cl)cc1
inactive: endpoint: mean survival time, dose: 25.0 mg/kg/injection, schedule: Q01DX001 (ip), vehicle: saline with Tween-80 97 % of control | endpoint: mean survival time, dose: 50.0 mg/kg/injection, schedule: Q01DX001 (ip), vehicle: saline with Tween-80 94 % of control | [8] 90 % of control | [9] 87 % of control

Clc1cc(CBr)c2ccccc2n1
inactive: [7] 101 % of control

Cc1ccc(NC(=O)Nc2ccccc2C(F)(F)F)cc1NC(=O)Nc1ccccc1C(F)(F)F
inactive: [2] 96 % of control | [4] 98 % of control | [6] 104 % of control

CCC1(CC)C=CC(Br)CC1(CC)CC (configuration not stated)
inactive: [1] 101 % of control | [3] 113 % of control | [5] 98 % of control

CC(=O)OCC(OC(C)=O)C(OC(C)=O)C(OC(C)=O)C(OC(C)=O)C(=O)C=O (configuration not stated)
inactive: endpoint: mean survival time, dose: 50.0 mg/kg/injection, schedule: Q01DX009 (ip), vehicle: saline with Tween-80 101 % of control | [1] 101 % of control | [3] 109 % of control

N=C(N)c1cccc(NC(=O)CCc2ccccc2)c1
inactive: [8] 97 % of control | [9] 93 % of control | [10] 92 % of control

CCC1(O)C(=O)OCc2c1cc1n(c2=O)Cc2cc3ccc(C=O)cc3nc2-1 (configuration not stated)
inactive: endpoint: median survival time, dose: 4.0 mg/kg/injection, schedule: Q04DX002 (ip), vehicle: saline with Tween-80 98 % of control | endpoint: median survival time, dose: 8.0 mg/kg/injection, schedule: Q04DX002 (ip), vehicle: saline with Tween-80 96 % of control | endpoint: median survival time, dose: 16.0 mg/kg/injection, schedule: Q04DX002 (ip), vehicle: saline with Tween-80 98 % of control | endpoint: median survival time, dose: 32.0 mg/kg/injection, schedule: Q04DX002 (ip), vehicle: saline with Tween-80 102 % of control

O=C(Nc1ccc(O)cc1)c1c(O)[nH]c(=S)[nH]c1=O
inactive: endpoint: median survival time, dose: 12.5 mg/kg/injection, schedule: Q01DX009 (ip), vehicle: saline with Tween-80 107 % of control | endpoint: median survival time, dose: 25.0 mg/kg/injection, schedule: Q01DX009 (ip), vehicle: saline with Tween-80 106 % of control | endpoint: median survival time, dose: 50.0 mg/kg/injection, schedule: Q01DX009 (ip), vehicle: saline with Tween-80 106 % of control | endpoint: median survival time, dose: 100.0 mg/kg/injection, schedule: Q01DX009 (ip), vehicle: saline with Tween-80 100 % of control

N#CSCc1ccc(CSC#N)c(Br)c1
inactive: endpoint: mean survival time, dose: 75.0 mg/kg/injection, schedule: Q04DX003 (ip), vehicle: saline 102 % of control | endpoint: mean survival time, dose: 150.0 mg/kg/injection, schedule: Q04DX003 (ip), vehicle: saline 98 % of control | endpoint: mean survival time, dose: 300.0 mg/kg/injection, schedule: Q04DX003 (ip), vehicle: saline 101 % of control

O=C(O)CC(Nc1sc([N+](=O)[O-])cc1[N+](=O)[O-])C(=O)O (configuration not stated)
inactive: [8] 98 % of control | [9] 105 % of control | [10] 102 % of control

CCCCCCCCCCCC1=C(O)C(=O)C=C(O)C1=O
inactive: endpoint: mean survival time, dose: 12.5 mg/kg/injection, schedule: Q01DX001 (ip), vehicle: saline 102 % of control | endpoint: mean survival time, dose: 25.0 mg/kg/injection, schedule: Q01DX001 (ip), vehicle: saline 123 % of control | endpoint: mean survival time, dose: 50.0 mg/kg/injection, schedule: Q01DX001 (ip), vehicle: saline 101 % of control

COC(=O)/C(Br)=C/C(C)=O
inactive: [8] 107 % of control | [9] 95 % of control
